Measurements reported in US20060034781A1, “PERORAL PREPARATION FOR PREVENTION OR TREATMENT OF ATOPIC DERMATATIS” (Kyowa Hakko Kogyo Co., Ltd., priority 2002, published 2006).

Key:
Type in all cases: in vivo
Conditions in all cases: oral, in feed (0.25% N-acetyl-trans-4-hydroxy-L-proline or 0.5% trans-4-hydroxy-L-proline) versus control feed
[1] = test system: NC/Nga mice; assay: Suppression of auricular edema in DNCB-treated atopic dermatitis model mice
Procedure: (§1) For the test, NC/Nga mice (five weeks age; purchased from Charles River) were used. The breeding conditions were that the mice were bred under room temperature of 22±2° C. and humidity of 35±15% and that feed and water were freely taken by them.
(§2) The test feed was prepared by well mixing of powdery feed CE-2 (manufactured by Nippon Claire) with 0.25% by weight of N-acetyl-trans-4-hydroxy-L-proline or 0.50% by weight of trans-4-hydroxy-L-proline. The feed containing N-acetyl-trans-4-hydroxy-L-proline was named a feed 1 while the feed containing trans-4-hydroxy-L-proline was named a feed 2 and, as a control feed, a powdery feed CE-2 was used.
With regard to the hapten, a product prepared by dissolving 1.5% by weight of dinitrochlorobenzene (DNCB) in a solution comprising 20% by volume of olive oil and 80% by volume of acetone was used. […]
Starting from the day when application of the hapten started, thickness of the right auricle was measured using Pescock Dial Thickness Gauge (manufactured by Ozaki Seisakusho) one daily.
An increasing amount of auricular edema was calculated according to the following formula 1 as a relative value to an increasing amount of auricular edema of a mouse which was not treated with DNCB and the result is shown in Table 2. […]

[2] = test system: mast cells; assay: Mast cell density at auricle of atopic dermatitis model mice (Toluidine Blue staining)
Procedure: as §1, §2
(§3) With regard to the hapten, a product prepared by dissolving 1.5% by weight of dinitrochlorobenzene (DNCB) in a solution comprising 20% by volume of olive oil and 80% by volume of acetone was used.
(§4) Three mice were used for each of the test groups, and 20 μl of 1.5% DNCB was respectively applied onto both side of the right auricle of each of the mice after nine days, ten days, thirteen days and fourteen days from initiation of administration of the test feed.
With regard to the model mice where atopic dermatitis appeared used in Test Example 1, tissues at auricle were frozen and embedded in Tissue-Tek O. C. T. Compound (manufactured by Sakura Seiki K. K.) on the 27th day from initiation of administration of the test feed. […]

[3] = test system: IgE; assay: IgE concentration in serum of atopic dermatitis model mice (ELISA)
Procedure: as §1, §2, §3, §4
With regard to the model mice where atopic dermatitis appeared used in Test Example 1, blood was collected from right thigh on the 27th day from initiation of administration of the test feed. […]

SMILES | auricular edema induced by DNCB (result in words) [1] | increase in mast cell density by application of DNCB (result in words) [2] | increase in IgE concentration in serum by application of DNCB (result in words) [3]
CC(=O)N1C[C@H](O)C[C@H]1C(=O)O [N-acetyl-trans-4-hydroxy-L-proline] | apparently suppressed | apparently suppressed | significantly suppressed
O=C(O)[C@@H]1C[C@@H](O)CN1 [trans-4-hydroxy-L-proline] | apparently suppressed | apparently suppressed | significantly suppressed
